Test in all cases: ≥ marks a high value that may be exact or a test limit, other limits are often not marked, values filed in µg/mL are converted to µM
Assay [1] has as its system Pseudomonas aeruginosa.
In assay [2] the test system is Staphylococcus aureus.
Assay [3] concerns Bacillus subtilis.
In assay [4] the test system is Salmonella typhimurium.
Assay [5] has as its system Escherichia coli HB101.
The test system of assay [6] is Xanthomonas vesicatoria DSM 50861.
Assay [7] concerns Pseudomonas syringae pv. syringae DSM 10604.
Assay [8] concerns Pseudomonas syringae pv. tomato DC3000.
In assay [9] the test system is Clavibacter michiganensis subsp. michiganensis DSM 46294.
Assay [10] deals with Pectobacterium carotovorum subsp. carotovorum DSM 30168.
Assay [11] deals with Pseudomonas corrugata DSM 7228.
For assay [12], the system named is Escherichia coli ATCC 25922.

In brackets after ≈: the same amount, converted by molar mass.

A word on the MIC: it is the smallest concentration in the dilution series that meets the test's criterion for growth inhibition. A low value points to greater potency.

For `CC[C@H](C)[C@H](NC(=O)[C@@H](NC(=O)[C@@H]1CCCN1C(=O)[C@@H](NC(=O)[C@@H]1CCCN1C(=O)[C@H](CCCCN)NC(=O)[C@H](CCCCN)NC(=O)[C@H](CO)NC(=O)CN)C(C)C)[C@@H](C)CC)C(=O)N[C@@H](Cc1ccc(O)cc1)C(=O)N[C@H]1CSSC[C@@H](C(=O)N[C@@H](CCC(N)=O)C(=O)N[C@@H](CCCN=C(N)N)C(=O)N[C@@H](CCSC)C(=O)O)NC(=O)[C@H](CCCCN)NC(=O)[C@H](CCCN=C(N)N)NC(=O)[C@H](CCCN=C(N)N)NC(=O)[C@H](CC(N)=O)NC1=O` [GSKKPVPIIYCNRRKCQRM], the MIC in [1] was found to be 10.4 µM (≈ 23.7 µg/mL); in assay [2], 10.4 µM (≈ 23.7 µg/mL); in [3] it was 5.2 µM (≈ 11.8 µg/mL); in [4], 1.3 µM (≈ 2.96 µg/mL); in assay [5], 2.6 µM (≈ 5.92 µg/mL).
For the molecule `CC[C@H](C)[C@H](NC(=O)[C@H](CC(C)C)NC(=O)[C@H](CCCCN)NC(=O)[C@@H](NC(=O)[C@@H](NC(=O)[C@H](CC(C)C)NC(=O)[C@H](CCCCN)NC(=O)[C@H](CC(C)C)NC(=O)[C@@H](NC(=O)[C@H](CCCN=C(N)N)NC(=O)[C@@H](NC(=O)[C@H](CC(C)C)NC(=O)[C@@H](NC(=O)[C@H](CCCN=C(N)N)NC(=O)[C@H](CCCN=C(N)N)NC(=O)[C@@H](N)CCCCN)[C@@H](C)CC)[C@@H](C)CC)[C@@H](C)CC)[C@@H](C)CC)[C@@H](C)CC)C(=O)N[C@@H](CC(C)C)C(=O)N[C@@H](CCCCN)C(=O)N[C@@H](CCCCN)C(=O)N[C@@H](CCCN=C(N)N)C(N)=O` [KRRILIRILKLIIKLILKKR], the MIC turned out to be 0.396 µM (≈ 1 µg/mL) in assay [6]; 3.96 µM (≈ 10 µg/mL) in [7]; 0.989 µM (≈ 2.5 µg/mL) in assay [8]; 0.989 µM (≈ 2.5 µg/mL) in assay [9]; 3.96 µM (≈ 10 µg/mL) in [10]; 3.96 µM (≈ 10 µg/mL) in assay [11].
For the molecule `CC(C)C[C@H](NC(=O)[C@H](C)NC(=O)[C@H](CCCN=C(N)N)NC(=O)[C@H](CCCN=C(N)N)NC(=O)[C@H](C)NC(=O)[C@H](Cc1ccccc1)NC(=O)[C@H](CCCN=C(N)N)NC(=O)[C@@H](N)CC(C)C)C(=O)N[C@@H](CCCN=C(N)N)C(=O)N[C@@H](CCCN=C(N)N)C(=O)N[C@@H](CC(C)C)C(=O)N[C@@H](Cc1ccccc1)C(N)=O` [LRFARRALRRLF], the MIC in assay [6] stood at 0.635 µM (≈ 0.999 µg/mL); in [7], 0.159 µM (≈ 0.25 µg/mL); in [8], 0.159 µM (≈ 0.25 µg/mL); in [9] it was 0.635 µM (≈ 0.999 µg/mL); in [10] it was 1.59 µM (≈ 2.5 µg/mL); in assay [11] it was 0.318 µM (≈ 0.5 µg/mL).
Turning to `CC(C)C[C@H](NC(=O)[C@H](CC(C)C)NC(=O)[C@H](CCCN=C(N)N)NC(=O)[C@H](CCCCN)NC(=O)[C@H](CC(C)C)NC(=O)[C@H](CC(C)C)NC(=O)[C@H](CCCCN)NC(=O)[C@H](CCCCN)NC(=O)[C@H](CCCN=C(N)N)NC(=O)[C@H](CCCCN)NC(=O)[C@H](CCCCN)NC(=O)[C@@H](N)CCCN=C(N)N)C(N)=O` [RKKRKKLLKRLL], the MIC in assay [6] was found to be 3.16 µM (≈ 5 µg/mL); in assay [7], 0.0633 µM (≈ 0.1 µg/mL); in [8] it was 0.633 µM (≈ 0.999 µg/mL); in [9], 3.16 µM (≈ 5 µg/mL); in assay [10], 6.33 µM (≈ 9.99 µg/mL); in assay [11] it was 0.158 µM (≈ 0.25 µg/mL).
For the molecule `CC[C@H](C)[C@H](NC(=O)[C@H](CCCN=C(N)N)NC(=O)[C@@H](N)CCCN=C(N)N)C(=O)N[C@@H](CCCN=C(N)N)C(=O)N1CCC[C@H]1C(=O)N[C@@H](CCCN=C(N)N)C(=O)N1CCC[C@H]1C(=O)N[C@@H](CCCN=C(N)N)C(=O)N[C@@H](CS)C(=O)O` [RRIRPRPRC], the MIC in [12] is over 128 µM; in assay [5], at least 128 µM.

For the origin of these results see DBAASP.
